# Assay results published in ChEMBL document CHEMBL3885881, “DrugMatrix”.
# Species: Rattus norvegicus
# Experiment: DrugMatrix - Regimen: Daily Repeat
# Format: toxicity, organism-based, Sprague-Dawley
# Parameters: regimen Daily Repeat, gender Male, age 6-8 weeks
# Settings: in vivo, po, route oral GAVAGE, […]; for ABSOLUTE BASOPHIL / ABSOLUTE EOSINOPHIL / ABSOLUTE LYMPHOCYTE / ABSOLUTE MONOCYTE / ABSOLUTE SEGMENTED NEUTROPHIL / BASOPHIL / EOSINOPHIL / ERYTHROCYTE COUNT / HEMATOCRIT / HEMOGLOBIN / LEUKOCYTE COUNT / LYMPHOCYTE / MEAN CORPUSCULAR HEMOGLOBIN / MEAN CORPUSCULAR HEMOGLOBIN CONCENTRATION / MEAN CORPUSCULAR VOLUME / MONOCYTE / NEUTROPHIL / NUCLEATED RED BLOOD CELLS / PLATELET COUNT: tissue Blood; for ALANINE AMINOTRANSFERASE / ALBUMIN / ALKALINE PHOSPHATASE / ASPARTATE AMINOTRANSFERASE / BLOOD UREA NITROGEN / CARBON DIOXIDE / CHLORIDE / CHOLESTEROL / CREATINE PHOSPHOKINASE / CREATININE / GLUCOSE / LACTATE DEHYDROGENASE / LIPASE / PHOSPHORUS / POTASSIUM / SODIUM / TOTAL BILIRUBIN / TOTAL PROTEIN / URIC ACID: tissue Plasma
# [1] = 0 mg/kg, 72 h, dose level Control, time 3 day
# [2] = 0 mg/kg, 120 h, dose level Control, time 5 day
# [3] = 0 mg/kg, dose level Control, time 28 day
# [4] = 56 mg/kg, 72 h, dose level Low, time 3 day
smiles,measurement,setting,value
NC[C@@H]1O[C@H](O[C@H]2[C@@H](O)[C@H](O[C@@H]3[C@@H](O)[C@H](N)C[C@H](N)[C@H]3O[C@H]3O[C@H](CN)[C@@H](O)[C@H](O)[C@H]3N)O[C@@H]2CO)[C@H](N)[C@@H](O)[C@@H]1O [FRAMYCETIN],ABSOLUTE BASOPHIL,[1],0 CELLS/uL
same,ABSOLUTE EOSINOPHIL,[1],33 CELLS/uL
same,ABSOLUTE LYMPHOCYTE,[1],9048.5 CELLS/uL
same,ABSOLUTE MONOCYTE,[1],80.17 CELLS/uL
same,ABSOLUTE SEGMENTED NEUTROPHIL,[1],1521.67 CELLS/uL
same,BASOPHIL,[1],0%
same,EOSINOPHIL,[1],0.17%
same,ERYTHROCYTE COUNT,[1],5.46 x10E6/uL
same,HEMATOCRIT,[1],32.87%
same,HEMOGLOBIN,[1],12.95 G/DL
same,LEUKOCYTE COUNT,[1],10.68 x10E3/uL
same,LYMPHOCYTE,[1],86.67%
same,MEAN CORPUSCULAR HEMOGLOBIN,[1],23.72 pg
same,MEAN CORPUSCULAR HEMOGLOBIN CONCENTRATION,[1],39.4 G/DL
same,MEAN CORPUSCULAR VOLUME,[1],60.18 fL
same,MONOCYTE,[1],0.83%
same,NEUTROPHIL,[1],12.33%
same,NUCLEATED RED BLOOD CELLS,[1],0 /100WBC
same,PLATELET COUNT,[1],1211.33 x10E3/uL
same,ALANINE AMINOTRANSFERASE,[1],76.67 u/L
same,ALBUMIN,[1],3.93 G/DL
same,ALKALINE PHOSPHATASE,[1],317.17 u/L
same,ASPARTATE AMINOTRANSFERASE,[1],81.17 u/L
same,BLOOD UREA NITROGEN,[1],12.33 mg/dL
same,CARBON DIOXIDE,[1],31.17 mmol/L
same,CHLORIDE,[1],98.33 MEQ/L
same,CHOLESTEROL,[1],67.17 mg/dL
same,CREATINE PHOSPHOKINASE,[1],312.33 u/L
same,CREATININE,[1],0.19 mg/dL
same,GLUCOSE,[1],165.5 mg/dL
same,LACTATE DEHYDROGENASE,[1],94.5 u/L
same,LIPASE,[1],9.83 u/L
same,PHOSPHORUS,[1],10.1 mg/dL
same,POTASSIUM,[1],5.16 MEQ/L
same,SODIUM,[1],143.02 MEQ/L
same,TOTAL BILIRUBIN,[1],0.2 mg/dL
same,TOTAL PROTEIN,[1],5.88 G/DL
same,URIC ACID,[1],0.68 mg/dL
same,ABSOLUTE BASOPHIL,[2],0 CELLS/uL
same,ABSOLUTE EOSINOPHIL,[2],14.67 CELLS/uL
same,ABSOLUTE LYMPHOCYTE,[2],9629.83 CELLS/uL
same,ABSOLUTE MONOCYTE,[2],72.5 CELLS/uL
same,ABSOLUTE SEGMENTED NEUTROPHIL,[2],1049.67 CELLS/uL
same,NUCLEATED RED BLOOD CELLS,[2],0.17 /100WBC
same,CARBON DIOXIDE,[2],26.4 mmol/L
same,LACTATE DEHYDROGENASE,[2],83.5 u/L
same,LIPASE,[2],85.83 u/L
same,URIC ACID,[2],0.8 mg/dL
same,BASOPHIL,[3],0.42%
same,EOSINOPHIL,[3],0.58%
same,ERYTHROCYTE COUNT,[3],8.06 x10E6/uL
same,HEMATOCRIT,[3],48.44%
same,HEMOGLOBIN,[3],16.34 G/DL
same,LEUKOCYTE COUNT,[3],13.04 x10E3/uL
same,LYMPHOCYTE,[3],85.12%
same,MEAN CORPUSCULAR HEMOGLOBIN,[3],20.26 pg
same,MEAN CORPUSCULAR HEMOGLOBIN CONCENTRATION,[3],33.74 G/DL
same,MEAN CORPUSCULAR VOLUME,[3],60.1 fL
same,MONOCYTE,[3],1.44%
same,NEUTROPHIL,[3],11.28%
same,PLATELET COUNT,[3],1226 x10E3/uL
same,ALANINE AMINOTRANSFERASE,[3],28.6 u/L
same,ALBUMIN,[3],3.94 G/DL
same,ALKALINE PHOSPHATASE,[3],254.6 u/L
same,ASPARTATE AMINOTRANSFERASE,[3],67.8 u/L
same,BLOOD UREA NITROGEN,[3],10.4 mg/dL
same,CHLORIDE,[3],104.6 MEQ/L
same,CHOLESTEROL,[3],57.6 mg/dL
same,CREATINE PHOSPHOKINASE,[3],224.8 u/L
same,CREATININE,[3],0.4 mg/dL
same,GLUCOSE,[3],140.6 mg/dL
same,PHOSPHORUS,[3],10.66 mg/dL
same,POTASSIUM,[3],6.58 MEQ/L
same,SODIUM,[3],148.6 MEQ/L
same,TOTAL BILIRUBIN,[3],0.24 mg/dL
same,TOTAL PROTEIN,[3],6.64 G/DL
same,ABSOLUTE BASOPHIL,[4],0 CELLS/uL
same,ABSOLUTE EOSINOPHIL,[4],0 CELLS/uL
same,ABSOLUTE LYMPHOCYTE,[4],8427.33 CELLS/uL
same,ABSOLUTE MONOCYTE,[4],92.67 CELLS/uL
same,ABSOLUTE SEGMENTED NEUTROPHIL,[4],980 CELLS/uL
same,BASOPHIL,[4],0%
same,EOSINOPHIL,[4],0%
same,ERYTHROCYTE COUNT,[4],5.46 x10E6/uL
same,HEMATOCRIT,[4],33.8%
same,HEMOGLOBIN,[4],13.4 G/DL
same,LEUKOCYTE COUNT,[4],9.5 x10E3/uL
same,LYMPHOCYTE,[4],88.67%
same,MEAN CORPUSCULAR HEMOGLOBIN,[4],24.57 pg
same,MEAN CORPUSCULAR HEMOGLOBIN CONCENTRATION,[4],39.63 G/DL
same,MEAN CORPUSCULAR VOLUME,[4],61.9 fL
same,MONOCYTE,[4],1%
same,NEUTROPHIL,[4],10.33%
same,NUCLEATED RED BLOOD CELLS,[4],0 /100WBC
same,PLATELET COUNT,[4],1108.33 x10E3/uL
same,ALANINE AMINOTRANSFERASE,[4],81 u/L
same,ALBUMIN,[4],4.1 G/DL
same,ALKALINE PHOSPHATASE,[4],367.33 u/L
same,ASPARTATE AMINOTRANSFERASE,[4],87 u/L
same,BLOOD UREA NITROGEN,[4],11.67 mg/dL
same,CARBON DIOXIDE,[4],33.33 mmol/L
same,CHLORIDE,[4],97 MEQ/L
same,CHOLESTEROL,[4],89.67 mg/dL
same,CREATINE PHOSPHOKINASE,[4],277.67 u/L
